{"source": "ChEMBL document CHEMBL1201862", "about": "“PubChem BioAssay data set” (2004)", "key": {"[1]": {"target": "Caspase-8 (Homo sapiens, UniProt Q14790)", "assay": "caspase-8 inhibition counter-screen, dose response, selectivity assay for caspase-6 inhibitor project, biochemical, Z-IETD-R110 fluorescence, cherry-picked samples (AID 743294)"}, "[2]": {"assay": "cytotoxicity toward NIH3T3 fibroblasts, dose response, counter-screen, cell-based, ATP luminescence, mouse fibroblasts (AID 2010);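 further: cells exposed to compound for about 90 hours before reading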", "type": "functional"}, "[3]": {"assay": "inhibitors of intracellular T. cruzi replication, confirmation, NIH3T3 host cells, beta-gal luminescence (AID 2044);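 further: luminescent beta-galactosidase reporter signal from transgenic T. cruzi replicating inside host cells; inhibitors lower the luminescence signal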", "type": "functional, cell-based"}, "[4]": {"assay": "cytotoxicity in HEK-293T cells, dose response, cytotoxicity control for BCR NF-kB inhibitor project, luminescence, B-cell screen hits (AID 489021);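 further: HEK-293T cells carrying an NF-kB luciferase reporter; cells exposed to compound for about 14 hours before viability readout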", "type": "functional, cell-based"}, "[5]": {"target": "Serine/threonine-protein phosphatase (Homo sapiens, UniProt Q9BPW0)", "assay": "PP5 phosphatase inhibitors, dose response, biochemical, fluorescence (AID 2395)"}, "[6]": {"target": "SUMO-activating enzyme (Homo sapiens, UniProt Q9UBT2)", "assay": "SUMOylation inhibitor hit validation, confirmation, SUMOylation inhibitor project, biochemical, AlphaScreen (AID 2018)", "type": "functional"}, "[7]": {"target": "Ribosomal protein S6 kinase beta-1 (Homo sapiens, UniProt P23443)", "type": "functional"}, "[8]": {"target": "Protein kinase C gamma type (Homo sapiens, UniProt P05129)", "type": "functional"}, "[9]": {"target": "Maternal embryonic leucine zipper kinase (Homo sapiens, UniProt Q14680)", "type": "functional"}, "[10]": {"target": "Vascular endothelial growth factor receptor 3 (Homo sapiens, UniProt P35916)", "type": "functional"}, "[11]": {"target": "Tyrosine-protein kinase Srms (Homo sapiens, UniProt Q9H3Y6)", "sequence (Q9H3Y6 whole entry)": "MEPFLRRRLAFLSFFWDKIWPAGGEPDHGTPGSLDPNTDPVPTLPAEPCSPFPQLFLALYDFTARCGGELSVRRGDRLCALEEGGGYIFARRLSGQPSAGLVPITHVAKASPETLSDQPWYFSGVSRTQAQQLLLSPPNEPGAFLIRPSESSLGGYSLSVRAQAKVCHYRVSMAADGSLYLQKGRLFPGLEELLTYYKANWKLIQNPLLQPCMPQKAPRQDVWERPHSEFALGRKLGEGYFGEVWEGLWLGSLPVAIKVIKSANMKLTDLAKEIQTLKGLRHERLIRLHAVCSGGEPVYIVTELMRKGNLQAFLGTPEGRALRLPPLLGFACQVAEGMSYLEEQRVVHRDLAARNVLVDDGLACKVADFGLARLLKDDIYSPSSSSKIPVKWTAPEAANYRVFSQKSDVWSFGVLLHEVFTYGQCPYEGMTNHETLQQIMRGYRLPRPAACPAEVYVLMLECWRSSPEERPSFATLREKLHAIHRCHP", "type": "functional"}, "[12]": {"target": "Tyrosine-protein kinase receptor TYRO3 (Homo sapiens, UniProt Q06418)", "type": "functional"}, "[13]": {"target": "MAP kinase-activated protein kinase 5 (Homo sapiens, UniProt Q8IW41)", "sequence (Q8IW41 whole entry)": "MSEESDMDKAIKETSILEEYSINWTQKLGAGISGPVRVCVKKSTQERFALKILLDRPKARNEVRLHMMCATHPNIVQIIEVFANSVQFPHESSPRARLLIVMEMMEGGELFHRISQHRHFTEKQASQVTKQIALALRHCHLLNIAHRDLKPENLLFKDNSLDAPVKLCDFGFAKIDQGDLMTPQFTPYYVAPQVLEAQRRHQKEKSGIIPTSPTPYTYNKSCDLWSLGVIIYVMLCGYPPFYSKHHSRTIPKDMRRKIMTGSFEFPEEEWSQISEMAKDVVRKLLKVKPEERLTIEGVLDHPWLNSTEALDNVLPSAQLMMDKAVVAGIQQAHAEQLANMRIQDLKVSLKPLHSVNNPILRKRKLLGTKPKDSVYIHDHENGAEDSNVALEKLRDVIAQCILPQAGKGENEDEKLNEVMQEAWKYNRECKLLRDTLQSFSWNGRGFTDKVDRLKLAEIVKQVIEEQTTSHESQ", "type": "functional"}, "[14]": {"target": "Receptor tyrosine-protein kinase erbB-4 (Homo sapiens, UniProt Q15303)", "sequence (Q15303 whole entry)": "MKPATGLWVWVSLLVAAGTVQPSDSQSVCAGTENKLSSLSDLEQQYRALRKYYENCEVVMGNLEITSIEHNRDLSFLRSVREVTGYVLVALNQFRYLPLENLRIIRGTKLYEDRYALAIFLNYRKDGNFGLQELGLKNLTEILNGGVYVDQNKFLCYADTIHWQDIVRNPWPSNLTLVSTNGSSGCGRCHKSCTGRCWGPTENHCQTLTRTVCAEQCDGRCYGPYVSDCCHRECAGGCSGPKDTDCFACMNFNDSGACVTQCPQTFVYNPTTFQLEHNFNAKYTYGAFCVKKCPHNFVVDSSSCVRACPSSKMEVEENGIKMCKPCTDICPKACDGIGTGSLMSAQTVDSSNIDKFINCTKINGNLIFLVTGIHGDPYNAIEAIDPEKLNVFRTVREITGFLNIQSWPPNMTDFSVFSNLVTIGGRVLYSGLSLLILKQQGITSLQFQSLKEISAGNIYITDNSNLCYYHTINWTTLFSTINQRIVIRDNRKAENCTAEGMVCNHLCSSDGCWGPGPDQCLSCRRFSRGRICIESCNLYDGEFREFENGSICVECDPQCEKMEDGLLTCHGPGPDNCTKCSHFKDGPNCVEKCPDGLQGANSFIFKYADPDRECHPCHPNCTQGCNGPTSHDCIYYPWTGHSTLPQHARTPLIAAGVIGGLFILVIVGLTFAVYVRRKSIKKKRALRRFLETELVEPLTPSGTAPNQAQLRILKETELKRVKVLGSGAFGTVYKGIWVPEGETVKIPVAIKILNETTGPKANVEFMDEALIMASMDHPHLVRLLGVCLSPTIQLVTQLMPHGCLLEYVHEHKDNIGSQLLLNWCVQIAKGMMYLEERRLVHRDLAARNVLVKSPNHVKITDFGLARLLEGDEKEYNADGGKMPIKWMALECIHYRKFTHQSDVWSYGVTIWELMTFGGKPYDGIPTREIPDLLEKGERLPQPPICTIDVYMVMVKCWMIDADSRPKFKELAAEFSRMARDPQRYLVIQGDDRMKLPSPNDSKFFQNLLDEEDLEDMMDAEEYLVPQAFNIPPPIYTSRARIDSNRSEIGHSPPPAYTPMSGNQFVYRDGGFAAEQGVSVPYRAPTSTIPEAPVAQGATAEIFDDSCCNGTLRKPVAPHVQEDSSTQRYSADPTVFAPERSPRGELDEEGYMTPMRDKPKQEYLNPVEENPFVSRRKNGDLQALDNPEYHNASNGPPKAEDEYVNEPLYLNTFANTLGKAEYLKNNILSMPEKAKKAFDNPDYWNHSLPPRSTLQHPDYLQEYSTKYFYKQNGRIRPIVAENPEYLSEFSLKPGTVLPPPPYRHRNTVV", "type": "functional"}, "[15]": {"target": "Proto-oncogene tyrosine-protein kinase ROS (Homo sapiens, UniProt P08922)", "type": "functional"}, "[16]": {"target": "Dual specificity protein kinase CLK4 (Homo sapiens, UniProt Q9HAZ1)", "type": "functional"}, "[17]": {"target": "MAP/microtubule affinity-regulating kinase 3 (Homo sapiens, UniProt P27448)", "type": "functional"}, "[18]": {"target": "Cyclin-dependent kinase 9 (Homo sapiens, UniProt P50750)", "type": "functional"}, "[19]": {"target": "SRSF protein kinase 1 (Homo sapiens, UniProt Q96SB4)", "type": "functional"}, "[20]": {"target": "Calcium/calmodulin-dependent protein kinase type II subunit delta (Homo sapiens, UniProt Q13557)", "type": "functional"}, "[21]": {"target": "MAP kinase-activated protein kinase 2 (Homo sapiens, UniProt P49137)", "type": "functional"}, "[22]": {"target": "Interleukin-1 receptor-associated kinase 4 (Homo sapiens, UniProt Q9NWZ3)", "type": "functional"}, "[23]": {"target": "Ribosomal protein S6 kinase alpha-3 (Homo sapiens, UniProt P51812)", "type": "functional"}, "[24]": {"target": "Mast/stem cell growth factor receptor Kit (Homo sapiens, UniProt P10721)", "sequence (P10721 whole entry)": "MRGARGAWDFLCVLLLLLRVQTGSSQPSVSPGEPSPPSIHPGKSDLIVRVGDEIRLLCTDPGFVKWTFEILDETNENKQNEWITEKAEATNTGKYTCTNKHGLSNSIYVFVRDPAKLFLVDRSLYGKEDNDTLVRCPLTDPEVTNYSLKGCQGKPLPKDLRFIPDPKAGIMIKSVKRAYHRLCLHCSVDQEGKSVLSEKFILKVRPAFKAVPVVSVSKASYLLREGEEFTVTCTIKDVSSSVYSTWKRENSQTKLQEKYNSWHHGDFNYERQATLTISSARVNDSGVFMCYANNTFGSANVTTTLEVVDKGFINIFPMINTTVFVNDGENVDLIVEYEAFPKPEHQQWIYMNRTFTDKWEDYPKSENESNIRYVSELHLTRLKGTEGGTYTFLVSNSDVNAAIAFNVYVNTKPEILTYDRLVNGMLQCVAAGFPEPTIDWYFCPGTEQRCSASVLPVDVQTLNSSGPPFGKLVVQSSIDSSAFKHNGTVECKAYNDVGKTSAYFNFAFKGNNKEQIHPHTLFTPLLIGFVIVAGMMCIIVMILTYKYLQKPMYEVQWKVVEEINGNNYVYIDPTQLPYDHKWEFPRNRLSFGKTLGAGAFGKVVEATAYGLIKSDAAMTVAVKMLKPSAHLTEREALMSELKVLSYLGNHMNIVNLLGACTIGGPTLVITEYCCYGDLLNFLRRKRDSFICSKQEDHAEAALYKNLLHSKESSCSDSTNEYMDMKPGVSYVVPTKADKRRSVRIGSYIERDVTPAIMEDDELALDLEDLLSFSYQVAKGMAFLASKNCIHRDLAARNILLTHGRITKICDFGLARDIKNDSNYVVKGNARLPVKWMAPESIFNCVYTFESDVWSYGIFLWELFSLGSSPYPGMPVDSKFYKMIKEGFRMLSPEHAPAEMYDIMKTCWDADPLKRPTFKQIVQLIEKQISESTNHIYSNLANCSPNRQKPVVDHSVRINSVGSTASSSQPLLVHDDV", "type": "functional"}, "[25]": {"target": "Tyrosine-protein kinase JAK3 (Homo sapiens, UniProt P52333)", "type": "functional"}, "[26]": {"target": "Serine/threonine-protein kinase PLK1 (Homo sapiens, UniProt P53350)", "type": "functional"}, "[27]": {"target": "Epidermal growth factor receptor (Homo sapiens, UniProt P00533)"}, "[28]": {"target": "RAC-alpha serine/threonine-protein kinase (Homo sapiens, UniProt P31749)", "type": "functional"}, "[29]": {"target": "Receptor-type tyrosine-protein kinase FLT3 (Homo sapiens, UniProt P36888)", "sequence (P36888 whole entry)": "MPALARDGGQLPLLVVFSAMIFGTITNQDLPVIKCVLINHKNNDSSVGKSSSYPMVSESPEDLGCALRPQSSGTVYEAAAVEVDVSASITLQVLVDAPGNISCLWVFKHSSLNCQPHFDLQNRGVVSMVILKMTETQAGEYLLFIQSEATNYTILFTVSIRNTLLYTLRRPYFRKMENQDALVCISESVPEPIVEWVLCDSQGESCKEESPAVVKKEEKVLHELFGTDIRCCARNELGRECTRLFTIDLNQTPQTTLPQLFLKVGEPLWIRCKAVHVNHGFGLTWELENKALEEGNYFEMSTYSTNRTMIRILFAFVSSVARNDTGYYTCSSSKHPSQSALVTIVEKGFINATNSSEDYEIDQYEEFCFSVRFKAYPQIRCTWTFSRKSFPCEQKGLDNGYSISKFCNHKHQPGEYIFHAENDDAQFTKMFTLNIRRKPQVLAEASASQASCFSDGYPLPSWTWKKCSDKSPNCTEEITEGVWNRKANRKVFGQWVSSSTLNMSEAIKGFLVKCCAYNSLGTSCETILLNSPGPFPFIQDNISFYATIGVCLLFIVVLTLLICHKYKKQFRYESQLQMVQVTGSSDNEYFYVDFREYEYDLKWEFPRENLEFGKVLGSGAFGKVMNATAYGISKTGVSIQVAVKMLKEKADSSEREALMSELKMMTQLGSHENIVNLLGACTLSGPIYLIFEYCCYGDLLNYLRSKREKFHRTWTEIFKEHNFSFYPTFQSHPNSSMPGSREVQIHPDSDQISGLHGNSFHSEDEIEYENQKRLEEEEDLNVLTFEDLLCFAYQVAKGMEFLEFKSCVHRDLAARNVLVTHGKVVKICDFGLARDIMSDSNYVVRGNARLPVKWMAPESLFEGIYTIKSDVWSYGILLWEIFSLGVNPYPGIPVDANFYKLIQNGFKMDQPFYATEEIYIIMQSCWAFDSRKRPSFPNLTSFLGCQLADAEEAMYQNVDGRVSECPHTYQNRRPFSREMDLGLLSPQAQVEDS", "type": "functional"}, "[30]": {"target": "Serine/threonine-protein kinase TBK1 (Homo sapiens, UniProt Q9UHD2)", "assay": "Navigating the Kinome. Panel member name: TBK1", "type": "functional"}, "[31]": {"target": "Dual specificity tyrosine-phosphorylation-regulated kinase 4 (Homo sapiens, UniProt Q9NR20)", "type": "functional"}, "[32]": {"target": "Vascular endothelial growth factor receptor 1 (Homo sapiens, UniProt P17948)", "type": "functional"}, "[33]": {"target": "Rho-associated protein kinase 2 (Homo sapiens, UniProt O75116)", "type": "functional"}, "[34]": {"target": "Serine/threonine-protein kinase PAK 1 (Homo sapiens, UniProt Q13153)", "type": "functional"}, "[35]": {"target": "Protein kinase C theta type (Homo sapiens, UniProt Q04759)", "assay": "Navigating the Kinome. Panel member name: PRKCQ", "type": "functional"}, "[36]": {"target": "Ribosomal protein S6 kinase alpha-5 (Homo sapiens, UniProt O75582)", "type": "functional"}, "[37]": {"target": "Inhibitor of nuclear factor kappa-B kinase subunit epsilon (Homo sapiens, UniProt Q14164)", "assay": "Navigating the Kinome. Panel member name: IKBKE", "type": "functional"}, "[38]": {"target": "Protein kinase C iota type (Homo sapiens, UniProt P41743)", "type": "functional"}, "[39]": {"target": "Testis-specific serine/threonine-protein kinase 1 (Homo sapiens, UniProt Q9BXA7)", "type": "functional"}, "[40]": {"target": "Hepatocyte growth factor receptor (Homo sapiens, UniProt P08581)", "type": "functional"}, "[41]": {"target": "Megakaryocyte-associated tyrosine-protein kinase (Homo sapiens, UniProt P42679)", "type": "functional"}, "[42]": {"target": "Mitogen-activated protein kinase 14 (Homo sapiens, UniProt Q16539)", "type": "functional"}, "[43]": {"target": "Eukaryotic elongation factor 2 kinase (Homo sapiens, UniProt O00418)", "type": "functional"}, "[44]": {"target": "cAMP-dependent protein kinase catalytic subunit PRKX (Homo sapiens, UniProt P51817)", "type": "functional"}, "[45]": {"target": "Serine/threonine-protein kinase DCLK1 (Homo sapiens, UniProt O15075)", "sequence (O15075 whole entry)": "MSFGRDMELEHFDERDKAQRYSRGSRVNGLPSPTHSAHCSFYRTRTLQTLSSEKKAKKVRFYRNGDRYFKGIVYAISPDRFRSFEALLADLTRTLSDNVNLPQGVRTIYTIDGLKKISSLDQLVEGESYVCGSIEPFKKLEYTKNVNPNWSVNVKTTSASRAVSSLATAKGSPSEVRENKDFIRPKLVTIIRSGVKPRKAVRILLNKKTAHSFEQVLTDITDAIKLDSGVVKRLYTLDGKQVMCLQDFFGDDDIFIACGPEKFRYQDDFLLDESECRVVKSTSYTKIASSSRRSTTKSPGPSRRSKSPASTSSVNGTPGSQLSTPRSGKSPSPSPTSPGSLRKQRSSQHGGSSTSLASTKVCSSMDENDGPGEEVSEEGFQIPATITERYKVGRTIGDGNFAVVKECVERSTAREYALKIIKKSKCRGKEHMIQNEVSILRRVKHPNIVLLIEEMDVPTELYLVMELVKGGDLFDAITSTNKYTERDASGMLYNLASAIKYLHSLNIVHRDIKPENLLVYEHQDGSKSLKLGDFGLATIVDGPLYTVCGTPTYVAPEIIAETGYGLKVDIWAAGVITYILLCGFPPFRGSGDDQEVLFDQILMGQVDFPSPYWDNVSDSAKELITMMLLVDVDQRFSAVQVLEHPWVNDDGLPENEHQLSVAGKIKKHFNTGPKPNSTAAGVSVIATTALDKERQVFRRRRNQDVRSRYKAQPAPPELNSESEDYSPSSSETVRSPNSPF", "type": "functional"}, "[46]": {"target": "Serine/threonine-protein kinase PLK4 (Homo sapiens, UniProt O00444)", "type": "functional"}}, "note": "Calls of active or inactive are those of the source.", "data": [{"smiles": "Cc1c(NC(=O)C(C)OC(=O)c2ccc([N+](=O)[O-])s2)c(=O)n(-c2ccccc2)n1C", "note": "(stereo unspecified)", "values": [{"measurement": "AC50", "setting": "[1]", "result": "22800 nM (active)"}, {"measurement": "EC50", "setting": "[2]", "result": "> 60000 nM (not active)"}, {"measurement": "EC50", "setting": "[3]", "result": "1590 nM (active)"}]}, {"smiles": "COc1cc(Br)c(C(=O)c2nccc3cc(OC)c(OC)cc23)cc1OC", "values": [{"measurement": "IC50", "setting": "[4]", "result": "> 80000 nM (inactive)"}, {"measurement": "IC50", "setting": "[5]", "result": "5920 nM (active)"}, {"measurement": "IC50", "setting": "[6]", "result": "420 nM (active)"}]}, {"smiles": "CC(N)C1CCC(C(=O)Nc2ccnc3[nH]ccc23)CC1", "note": "(stereo unspecified)", "values": [{"measurement": "Ki", "setting": "[7]", "result": "501 nM (active)"}, {"measurement": "Ki", "setting": "[8]", "result": "2510 nM (active)"}, {"measurement": "Ki", "setting": "[9]", "result": "> 1580 nM (inactive)"}, {"measurement": "Ki", "setting": "[10]", "result": "> 6310 nM (inactive)"}, {"measurement": "Ki", "setting": "[11]", "result": "> 1580 nM (inactive)"}, {"measurement": "Ki", "setting": "[12]", "result": "> 2510 nM (inactive)"}, {"measurement": "Ki", "setting": "[13]", "result": "> 1580 nM (inactive)"}, {"measurement": "Ki", "setting": "[14]", "result": "> 3980 nM (inactive)"}, {"measurement": "Ki", "setting": "[15]", "result": "> 2000 nM (inactive)"}, {"measurement": "Ki", "setting": "[16]", "result": "158 nM (active)"}, {"measurement": "Ki", "setting": "[17]", "result": "> 5010 nM (inactive)"}, {"measurement": "Ki", "setting": "[18]", "result": "> 1580 nM (inactive)"}, {"measurement": "Ki", "setting": "[19]", "result": "> 7940 nM (inactive)"}, {"measurement": "Ki", "setting": "[20]", "result": "3160 nM (active)"}, {"measurement": "Ki", "setting": "[21]", "result": "> 7940 nM (inactive)"}, {"measurement": "Ki", "setting": "[22]", "result": "2510 nM (active)"}, {"measurement": "Ki", "setting": "[23]", "result": "1260 nM (active)"}, {"measurement": "Ki", "setting": "[24]", "result": "> 1260 nM (inactive)"}, {"measurement": "Ki", "setting": "[25]", "result": "> 3980 nM (inactive)"}, {"measurement": "Ki", "setting": "[26]", "result": "> 7940 nM (inactive)"}, {"measurement": "Ki", "setting": "[27]", "result": "> 2000 nM (inactive)"}, {"measurement": "Ki", "setting": "[28]", "result": "1260 nM (active)"}, {"measurement": "Ki", "setting": "[29]", "result": "> 3160 nM (inactive)"}, {"measurement": "Ki", "setting": "[30]", "result": "> 3160 nM (inactive)"}, {"measurement": "Ki", "setting": "[31]", "result": "> 7940 nM (inactive)"}, {"measurement": "Ki", "setting": "[32]", "result": "> 2000 nM (inactive)"}, {"measurement": "Ki", "setting": "[33]", "result": "25.1 nM (active)"}, {"measurement": "Ki", "setting": "[34]", "result": "> 10000 nM (inactive)"}, {"measurement": "Ki", "setting": "[35]", "result": "7.94 nM (active)"}, {"measurement": "Ki", "setting": "[36]", "result": "631 nM (active)"}, {"measurement": "Ki", "setting": "[37]", "result": "> 3160 nM (inactive)"}, {"measurement": "Ki", "setting": "[38]", "result": "3980 nM (active)"}, {"measurement": "Ki", "setting": "[39]", "result": "> 1580 nM (inactive)"}, {"measurement": "Ki", "setting": "[40]", "result": "> 2510 nM (inactive)"}, {"measurement": "Ki", "setting": "[41]", "result": "> 2000 nM (inactive)"}, {"measurement": "Ki", "setting": "[42]", "result": "> 3980 nM (inactive)"}, {"measurement": "Ki", "setting": "[43]", "result": "> 3980 nM (inactive)"}, {"measurement": "Ki", "setting": "[44]", "result": "501 nM (active)"}, {"measurement": "Ki", "setting": "[45]", "result": "> 10000 nM (inactive)"}, {"measurement": "Ki", "setting": "[46]", "result": "1580 nM (active)"}]}]}
